The values below come from US20240408067A1, “SOLID STATE FORMS OF NIROGACESTAT SALTS” (TEVA PHARMACEUTICALS INTERNATIONAL GMBH, priority 2021, published 2024).

Where a name gives a salt, the structure may show the parent alone.

Common to all, as to type: physicochemical
Data set [1] is described as follows: Stability under pressure of 2 tons.
The nature of data set [2]: Storage stability at different relative humidity and temperatures, 6 months (XRPD). The settings on record: for XRPD analysis results, 25° C., 60% RH / XRPD analysis results, 40° C., 75% RH: 6 months. The method, then:
(§1) X-ray diffraction was performed on X-Ray powder diffractometer: Bruker D8 Advance; CuKα radiation (λ=1.5418 Å); Lynx eye detector; laboratory temperature 22-25° C.; PMMA specimen holder ring with silicon low background. Prior to analysis, the samples were gently ground by means of mortar and pestle in order to obtain a fine powder. The ground sample was adjusted into a cavity of the sample holder and the surface of the sample was smoothed by means of a cover glass. • Scan range: 2-40 degrees 2-theta; • Scan mode: continuous; • Step size: 0.05 degrees; • Time per step: 0.5 s; • Sample spin: 30 rpm; • Sample holder: PMMA specimen holder ring with silicon low background. Samples of Nirogacestat dihydrobromide Form NT1 were subjected to conditions of different relative humidity at different temperatures. XRPD analysis was performed on the samples after 6 months.

Data set [3] is described as follows: Grinding experiments (strong grinding, solvent drop grinding; XRPD). The settings on record: for XRPD analysis results, strong grinding: about 20 mg ground with a pestle for 2 minutes, sample alone; for Stability to solvent drop grinding: isopropanol or no solvent. The method, then: X-ray diffraction was performed on X-Ray powder diffractometer: Bruker D8 Advance; CuKα radiation (λ=1.5418 Å); Lynx eye detector; laboratory temperature 22-25° C.; PMMA specimen holder ring with silicon low background. Prior to analysis, the samples were gently ground by means of mortar and pestle in order to obtain a fine powder. The ground sample was adjusted into a cavity of the sample holder and the surface of the sample was smoothed by means of a cover glass. • Scan range: 2-40 degrees 2-theta; • Scan mode: continuous; • Step size: 0.05 degrees; • Time per step: 0.5 s; • Sample spin: 30 rpm; • Sample holder: PMMA specimen holder ring with silicon low background. […] […] In these experiments, about 20 mg of the sample is placed in a mortar and ground with a pestle for 2 minutes. The solvent, when used, was added to the crystalline material before grinding, in a volume of 10 microlitres. XRPD analysis performed on the sample after the grinding experiment, confirmed no change in the starting material (Table 3):

The nature of data set [4]: Storage stability at different relative humidities, ambient temperature, 7 days (XRPD). As for the experimental part:
as §1, with “NT1 and Nirogacestat hydrobromide Form NHBr1” for “NT1”, “ambient temperature.” for “different temperatures.”, “7 days.” for “6 months.”

The nature of data set [5]: Thermal stability, heating up to 100° C. (XRPD). The settings on record: heating up to 100° C. for 30 minutes. As for the experimental part: as §1, with “NT1 and Nirogacestat hydrobromide Form NHBr1” for “NT1”, “to heating up to 100° C. for 30 minutes.” for “to conditions of different relative humidity at different temperatures.”, “analysis of” for “analysis was performed on”, “the sample confirmed there to be no change in the starting material (Table 4): […]” for “the samples after 6 months.”

[6] abbreviates: listed as Form NT1, dihydrobromide salt.
The mark [7] stands for this setting: listed as Nirogacestat dihydrobromide Form NT1, dihydrobromide salt.
Where [8] appears, read: listed as Form NT1 of Nirogacestat dihydrobromide, dihydrobromide salt.
The mark [9] stands for this setting: listed as Nirogacestat dihydrobromide form NT1, dihydrobromide salt.
Where [10] appears, read: listed as Form NHBr1 of Nirogacestat hydrobromide, hydrobromide salt.
Where [11] appears, read: listed as Nirogacestat hydrobromide Form NHBr1, hydrobromide salt.

For `CCC[C@H](N[C@H]1CCc2cc(F)cc(F)c2C1)C(=O)Nc1cn(C(C)(C)CNCC(C)(C)C)cn1` [Nirogacestat dihydrobromide salt], the Stability under pressure result in data set [1] is given as “stable”. Besides, the “XRPD analysis results, 25° C., 60% RH” value in data set [2] (setting [6]) is “stable”; in data set [2] (setting [7]) it was “No change”. The “XRPD analysis results, 40° C., 75% RH” value in data set [2] (setting [6]) is recorded as “stable”; in data set [2] (setting [7]) it was “No change”. In addition, in data set [2] (at least 6 months, summary of Table 2), the “Stability after exposure to high and low relative humidity at different temperatures” value is reported as “stable”. The “XRPD analysis results, strong grinding” value is recorded as “No change” in data set [3] (dihydrobromide salt), “stable” in data set [3] (setting [8]), “no change” in data set [3] (setting [7]) and “stable” in data set [3] (setting [9]). The “XRPD analysis results, solvent-drop grinding (ethanol)” value in data set [3] (ground 2 minutes, 10 microlitres solvent, ethanol) is “No change”. Also, the “XRPD analysis results, solvent-drop grinding (water)” value in data set [3] (ground 2 minutes, 10 microlitres solvent, water) is recorded as “No change”. For the same molecule, the entries for the “Stability to solvent drop grinding” value in data set [3] (setting [7]) and in data set [3] (setting [9]) were “no change” and “stable”, respectively. Also, the “Resistance to polymorphic changes on grinding” value in data set [3] (summary of Table 3) was “resistant to polymorphic changes”. The “XRPD analysis results, relative humidity 20%” value in data set [4] (20% RH, ambient temperature, 7 days, listed as Form NT1, dihydrobromide salt) is reported as “stable”. In data set [4] (40% RH, ambient temperature, 7 days, listed as Form NT1, dihydrobromide salt), the “XRPD analysis results, relative humidity 40%” value is “stable”. In addition, in data set [4] (60% RH, ambient temperature, 7 days, listed as Form NT1, dihydrobromide salt), the “XRPD analysis results, relative humidity 60%” value is given as “stable”. Moreover, the “XRPD analysis results, relative humidity 80%” value in data set [4] (80% RH, ambient temperature, 7 days, listed as Form NT1, dihydrobromide salt) is on record as “stable”. Further, the “Stability after exposure to high and low relative humidity” value in data set [4] (at least 7 days, summary of Table 1) is on record as “stable”. In addition, the “Result, heating 100° C., 30 minutes” value in data set [5] (dihydrobromide salt) is given as “Stable”; in data set [5] (setting [8]), “stable”; in data set [5] (setting [7]), “no change”; in data set [5] (setting [9]), “stable”.
As for `CCC[C@H](N[C@H]1CCc2cc(F)cc(F)c2C1)C(=O)Nc1cn(C(C)(C)CNCC(C)(C)C)cn1` [Nirogacestat hydrobromide salt], the “XRPD analysis results, strong grinding” value is “No change” in data set [3] (hydrobromide salt), “stable” in data set [3] (setting [10]) and “no change” in data set [3] (setting [11]). For the same molecule, in data set [3] (setting [11]), the “Stability to solvent drop grinding” value is given as “no change”. The “Result, heating 100° C., 30 minutes” value in data set [5] (hydrobromide salt) was “Stable”; in data set [5] (setting [10]), “stable”; in data set [5] (setting [11]), “no change”.
